Values joined by “and” are separate entries in the source; they are usually repeats but may differ in a detail not shown here. Equal values may be shown once. Read-outs that look alike come from different tables or passages of the source.
What was measured:
H1299 tumor = test: Efficacy and tolerability in non-small cell lung carcinoma model H1299 (Example 60); conditions: for Tumor growth inhibition (% TGI): 30 mg/kg IV 1/wk×2, 30 mg/kg
Experimental: H1299 cells were grown in culture to 85-90% confluency in RPMI medium supplemented with 10% fetal bovine serum (FBS), 1% glutamine and 1% penicillin/streptomycin. Cells were removed from the culture flask using 0.05% trypsin (passage=4), re-suspended in RPMI medium (density=50×10^6 cells/mL) and were implanted subcutaneously (5×10^6 cells in 100 μL RPMI medium/mouse) into the mammary fat pad area of male nu/nu mice on day 1.
The treatments were administered IV into the tail vein at a dose volume of 10 and 20 mL/kg for 30 and 60 mg/kg respectively, beginning on post-implantation day 30 when the mean tumor volume was ca. 170 mm^3 (small tumor group), and on day 37 when the mean tumor volume was ca. 440 mm^3 (large tumor group). Body weight and tumor volume were measured for three times a week during the dosing period and twice a week thereafter. In addition, animals were also monitored for any morbidity and adverse effects for three times a week during the dosing period and twice a week thereafter.
Tumor volume was calculated with (width×width×length)/2 mm^3 formula. Efficacy was determined by tumor growth inhibition (TGI), tumor growth delay (TGD) and survival. Tumor growth inhibition (TGI) is represented as % and calculated as (1−(treated tumor volume/control tumor volume))×100 when the control group mean tumor volume reached ≧1000 mm^3 Tumor growth delay (TGD) is calculated by subtracting the day when the vehicle treated group reached the maximum tumor size 1000 mm^3 from the day when the treatment group tumor size reached 1000 mm^3.

[1] = Tolerability in normal male C57BL/6 non-tumor-bearing mice (Example 47); type: in vivo, mouse; conditions: for Ataxia: n=5
Experimental: Treatments were administered intravenously on a q7dx2 schedule, i.e., two treatments seven days apart (the first treatment was on Day one). The study ended on Day 14, six days after the 2nd treatment. Blood was collected for complete blood count (CBC) and serum chemistry. Leg muscles were collected so that nerve degeneration could be assessed from the sciatic nerve.

MDA-MB-435 tumor [2] = test: In vivo efficacy in MDA-MB-435 melanoma human xenograft model (Example 46); set-up: species or system mouse
Experimental: MDA-MB-435 cells were grown in culture to confluency in RPMI medium containing 10% FBS and 1% penicillin/streptomycin and then resuspended in RPMI (passage 4) for implantation into mice. A volume of 0.1 mL containing 4.0×10^6 cells MDA-MB-435 cells were implanted into the mammary gland of female CD-1 nude mice on Day 1.

MDA-MB-435 tumor [3] = test: MDA-MB-435 breast xenograft model, delayed treatment (Example 93); type: in vivo, mouse
Description: See, for example, FIG. 7.

SK-OV-3 tumor = test: In vivo efficacy in SK-OV-3 ovarian human xenograft model (Example 45); set-up: species or system mouse
Experimental: SK-OV-3 cells were grown in culture to confluency in RPMI medium containing 10% FBS and 1% penicillin/streptomycin and then resuspended in RPMI (passage 4) for implantation into mice. This suspension of SK-OV-3 cells (density=30×10^6 cells/mL) was implanted into the mammary gland of female CD-1 nude mice on Day 1. […]

B16.F10 tumor [4] = test: Efficacy and tolerability in mouse melanoma model B16.F10 (Example 58)
Experimental: B16.F10 cells were grown in culture to 85-90% confluency in MEM-alpha medium supplemented with 10% fetal bovine serum (FBS) and 1% penicillin/streptomycin. Cells were removed from the culture flask using 0.05% trypsin (passage=4), re-suspended in PBS (density=10×10^6 cells/mL) and were implanted subcutaneously (1×10^6 cells in 100 μL MEM-alpha medium/mouse) into the right flank of male C57BL/6 mice on day 1.
Body weight and tumor volume were measured three times a week. In addition, animals were also monitored for any morbidity and adverse effects three times a week.
Tumor volume was calculated with (width×width×length)/2 mm^3 formula. Efficacy was determined by tumor growth inhibition (TGI), tumor growth delay (TGD) and survival. Tumor growth inhibition (TGI) is represented as % and calculated as (1−(treated tumor volume/control tumor volume))×100 when the control group mean tumor volume reached ≧3000 mm^3. Tumor growth delay (TGD) is calculated by subtracting the day when the vehicle treated group reached the maximum tumor size 3000 mm^3 from the day when the treatment group tumor size reached 3000 mm^3. The criterion at which a mouse was removed from the study was tumor volume ≧3000 mm^3.

B16.F10 tumor [5] = test: Efficacy and tolerability in B16.F10 murine melanoma model (Example 43); type: in vivo, mouse
Experimental: Refer to table for detailed description of formulations.
Tumor volume was calculated with the following equation: (width×width×length)/2 mm^3.

[6] = large tumor group, 30 mg/kg 1/wk×2
[7] = large tumor group, 60 mg/kg 1/wk×2
[8] = small tumor group, 30 mg/kg 1/wk×2
[9] = small tumor group, 60 mg/kg 1/wk×2
[10] = 30 mg/kg IV 1/biwk×3, listed as free docetaxel
[11] = 30 mg/kg IV 1/wk×3, listed as free docetaxel
[12] = 15 mg/kg IV q3dq4dx3, listed as Docetaxel
[13] = 15 mg/kg IV three times, once every week

Experimental for ADR-RES tumor: ADR-RES cells were grown in culture to 85-90% confluency in RPMI medium supplemented with 10% fetal bovine serum (FBS), 1% glutamine and 1% penicillin/streptomycin.
The treatments were administered IV into the tail vein at a dose volume of 10 and 20 mL/kg for 30 and 60 mg/kg respectively, beginning on post-implantation day 47, when the mean tumor volume was ca. 150 mm^3. Body weight and tumor volume were measured for three times a week during the dosing period and twice a week thereafter. In addition, animals were also monitored for any morbidity and adverse effects for three times a week during the dosing period and twice a week thereafter.
Tumor volume was calculated with (width×width×length)/2 mm^3 formula. Efficacy was determined by tumor growth inhibition (TGI), tumor growth delay (TGD) and survival. Tumor growth inhibition (TGI) is represented as % and calculated as (1−(treated tumor volume/control tumor volume))×100 when the control group mean tumor volume reached ≧1000 mm^3. Tumor growth delay (TGD) is calculated by subtracting the day when the vehicle treated group reached the maximum tumor size 1000 mm^3 from the day when the treatment group tumor size reached 1000 mm^3.

CC(=O)O[C@@]12CO[C@@H]1C[C@H](O)[C@@]1(C)C(=O)[C@H](O)C3=C(C)[C@@H](OC(=O)[C@H](O)[C@@H](NC(=O)OC(C)(C)C)c4ccccc4)C[C@@](O)([C@@H](OC(=O)c4ccccc4)[C@H]21)C3(C)C [Free docetaxel, docetaxel]
Day mean tumor volume endpoint (≧1000 mm^3) reached (H1299 tumor; [6]): 63 days | Day of 0% survival (H1299 tumor; [6]): 80 days | Day of 50% survival (H1299 tumor; [6]): 61 days | Hind limb paralysis (H1299 tumor; [6]): did not cause any significant body weight loss or hind limb paralysis | Increase in TGD (H1299 tumor; [6]): 43% | Maximum body weight loss (H1299 tumor; [6]): 19% | Tumor growth delay (TGD) (H1299 tumor; [6]): 19 days | Tumor shrinkage (H1299 tumor; [6]): no tumor shrinkage | Tumor growth inhibition (% TGI) (H1299 tumor; large tumor group): 49% | Tumor growth inhibition (% TGI) (H1299 tumor; large tumor group, listed as free docetaxel): 49% | Hind limb paralysis (H1299 tumor; [7]): severe hind limb paralysis | Maximum body weight loss (H1299 tumor; [7]): significant body weight loss | Day mean tumor volume endpoint (≧1000 mm^3) reached (H1299 tumor; [8]): 61 days | Day of 0% survival (H1299 tumor; [8]): 68 days | Day of 50% survival (H1299 tumor; [8]): 56 days | Hind limb paralysis (H1299 tumor; [8]): did not cause any significant body weight loss or hind limb paralysis | Increase in TGD (H1299 tumor; [8]): 39% | Maximum body weight loss (H1299 tumor; [8]): 18% | Tumor growth delay (TGD) (H1299 tumor; [8]): 17 days | Tumor growth inhibition (% TGI) (H1299 tumor; small tumor group): 64% | Tumor growth inhibition (% TGI) (H1299 tumor; small tumor group, listed as free docetaxel): 64% | Hind limb paralysis (H1299 tumor; [9]): severe hind limb paralysis | Maximum body weight loss (H1299 tumor; [9]): significant body weight loss | Body weight above initial on Day 14 ([1]; 30 mg/kg IV q7dx2): 3% | Mice developing ataxia ([1]; 30 mg/kg q7dx2): no mice | Lymphocyte mean ([1]; 30 mg/kg q7dx2, Day 14): 4350 cells/μL | Neutrophil mean ([1]; 30 mg/kg q7dx2, Day 14): 556 cells/μL | WBC # mean ([1]; 30 mg/kg q7dx2, Day 14): 5.1 ×1000 cells/μL | Ataxia ([1]; 30 mg/kg q7dx2): 0% | Body weight above initial on Day 14 ([1]; 45 mg/kg IV q7dx2): 2% | Lymphocyte mean ([1]; 45 mg/kg q7dx2, Day 14): 6780 cells/μL | Mice developing ataxia ([1]; 45 mg/kg q7dx2, Day 14): One mouse | Neutrophil mean ([1]; 45 mg/kg q7dx2, Day 14): 752 cells/μL | WBC # mean ([1]; 45 mg/kg q7dx2, Day 14): 7.8 ×1000 cells/μL | Ataxia ([1]; 45 mg/kg q7dx2): 20% | Weight loss after second treatment, by end of study ([1]; 60 mg/kg IV q7dx2, Day 14): 19% | Mice developing ataxia ([1]; 60 mg/kg q7dx2): Five out of five mice | Lymphocyte mean ([1]; 60 mg/kg q7dx2, Day 14): 5590 cells/μL | Neutrophil mean ([1]; 60 mg/kg q7dx2, Day 14): 470 cells/μL | WBC # mean ([1]; 60 mg/kg q7dx2, Day 14): 6.2 ×1000 cells/μL | Ataxia ([1]; 60 mg/kg q7dx2): 100% | Effect on serum chemistry parameters ([1]; q7dx2): did not affect any serum chemistry parameter at doses up to 60 mg/kg | Day mean tumor volume endpoint (≧1000 mm^3) reached (ADR-RES tumor; 30 mg/kg IV 1/biwk×3): 99 days | Day of 50% survival (ADR-RES tumor; 30 mg/kg IV 1/biwk×3): 102 days | Hind limb paralysis (ADR-RES tumor; 30 mg/kg IV 1/biwk×3): did not cause any significant body weight loss (<10%) or hind limb paralysis | Increase in TGD (ADR-RES tumor; 30 mg/kg IV 1/biwk×3): 0% | Maximum body weight loss (ADR-RES tumor; 30 mg/kg IV 1/biwk×3): 9% | Tumor growth delay (TGD) (ADR-RES tumor; 30 mg/kg IV 1/biwk×3): 0 days | Tumor growth inhibition (% TGI) (ADR-RES tumor; 30 mg/kg IV 1/biwk×3): 0% | Tumor growth delay (TGD) (ADR-RES tumor; [10]): no TGD | Tumor growth inhibition (% TGI) (ADR-RES tumor; [10]): 0% | Day mean tumor volume endpoint (≧1000 mm^3) reached (ADR-RES tumor; 30 mg/kg IV 1/wk×2): 109 days | Day of 50% survival (ADR-RES tumor; 30 mg/kg IV 1/wk×2): 106 days | Hind limb paralysis (ADR-RES tumor; 30 mg/kg IV 1/wk×2): did not cause any significant body weight loss (<10%) or hind limb paralysis | Increase in TGD (ADR-RES tumor; 30 mg/kg IV 1/wk×2): 13% | Maximum body weight loss (ADR-RES tumor; 30 mg/kg IV 1/wk×2): 6% | Tumor growth delay (TGD) (ADR-RES tumor; 30 mg/kg IV 1/wk×2): 7 days | Tumor growth inhibition (% TGI) (ADR-RES tumor; 30 mg/kg IV 1/wk×2): 23% | Tumor growth inhibition (% TGI) (ADR-RES tumor; 30 mg/kg IV 1/wk×2, listed as free docetaxel): 23% | Hind limb paralysis (ADR-RES tumor; 60 mg/kg IV 1/biwk×3): severe hind limb paralysis | Maximum body weight loss (ADR-RES tumor; 60 mg/kg IV 1/biwk×3): 21% | Day mean tumor volume endpoint (≧1000 mm^3) reached (ADR-RES tumor; 60 mg/kg IV 1/wk×2): 106 days | Day of 50% survival (ADR-RES tumor; 60 mg/kg IV 1/wk×2): 106 days | Hind limb paralysis (ADR-RES tumor; 60 mg/kg IV 1/wk×2): hind limb paralysis after the 2nd injection followed by recovery | Increase in TGD (ADR-RES tumor; 60 mg/kg IV 1/wk×2): 7% | Maximum body weight loss (ADR-RES tumor; 60 mg/kg IV 1/wk×2): 23% | Tumor growth delay (TGD) (ADR-RES tumor; 60 mg/kg IV 1/wk×2): 4 days | Tumor growth inhibition (% TGI) (ADR-RES tumor; 60 mg/kg IV 1/wk×2): 14% | Tumor growth inhibition (% TGI) (ADR-RES tumor; 60 mg/kg IV 1/wk×2, listed as free docetaxel): 14% | Maximum body weight loss (MDA-MB-435 tumor [2]; 15 mg/kg IV Days 21 and 28): 10% | Maximum body weight loss (MDA-MB-435 tumor [2]; 30 mg/kg IV Days 21 and 28): 14% | Ataxia (MDA-MB-435 tumor [2]; 30 mg/kg IV weekly×2): did not cause ataxia | Body weight loss (MDA-MB-435 tumor [2]; 60 mg/kg IV Days 21 and 28 (mean tumor 150 mm^3)): greater than 20% | Ataxia (MDA-MB-435 tumor [2]; 60 mg/kg IV weekly×2, listed as docetaxel): developed ataxia | Ataxia (MDA-MB-435 tumor [2]; 60 mg/kg IV weekly×2, listed as free docetaxel): Ataxia was observed four days after the second treatment | Effect on tumors allowed to grow to 500 mm^3 (MDA-MB-435 tumor [3]): unable to suppress tumor growth over this time period | Tumor growth delay (TGD) (SK-OV-3 tumor; 15 mg/kg IV weekly×2): 18 days | Ataxia (SK-OV-3 tumor; 30 mg/kg IV weekly×2): did not cause ataxia | Maximum body weight loss (SK-OV-3 tumor; 30 mg/kg IV weekly×2): 13% | Tumor growth delay (TGD) (SK-OV-3 tumor; 30 mg/kg IV weekly×2): 42 days | Body weight loss (SK-OV-3 tumor; 60 mg/kg IV weekly×2): greater than 20% | Day of 0% survival (B16.F10 tumor [4]; 30 mg/kg 1/wk×3): 45 days | Day of 50% survival (B16.F10 tumor [4]; 30 mg/kg 1/wk×3): 40 days | Day mean tumor volume endpoint (≧3000 mm^3) reached (B16.F10 tumor [4]; 30 mg/kg IV 1/wk×3): 43 days | Increase in TGD (B16.F10 tumor [4]; 30 mg/kg IV 1/wk×3): 115% | Maximum body weight loss (B16.F10 tumor [4]; 30 mg/kg IV 1/wk×3): 12% | Tumor growth delay (TGD) (B16.F10 tumor [4]; 30 mg/kg IV 1/wk×3): 23 days | Tumor growth inhibition (% TGI) (B16.F10 tumor [4]; 30 mg/kg IV 1/wk×3): 92% | Maximum body weight loss (B16.F10 tumor [4]; [11]): did not cause any significant body weight loss | Tumor growth inhibition (% TGI) (B16.F10 tumor [4]; [11]): 92% | Tumor growth inhibition (TGI) (B16.F10 tumor [5]; 15 mg/kg IV q3dq4dx3): 90% | Maximum body weight loss (B16.F10 tumor [5]; [12]): 11% and 12% | Tumor growth delay (TGD) (B16.F10 tumor [5]; [12]): 11 days and 12 days | Maximum body weight loss (B16.F10 tumor [5]; 15 mg/kg IV q4dq3dx3): 11% | Tumor growth delay (TGD) (B16.F10 tumor [5]; 15 mg/kg IV q4dq3dx3): 11 days | Tumor growth inhibition (TGI) (B16.F10 tumor [5]; 15 mg/kg IV q4dq3dx3): 90% | Maximum body weight loss (B16.F10 tumor [5]; [13]): 11% | Tumor growth delay (TGD) (B16.F10 tumor [5]; [13]): 11 days | Tumor growth inhibition (TGI) (B16.F10 tumor [5]; [13]): approximately 90% | Maximum body weight loss (B16.F10 tumor [5]; 30 mg/kg IV q7dx3): 11% | Tumor growth delay (TGD) (B16.F10 tumor [5]; 30 mg/kg IV q7dx3): 17 days | Tumor growth inhibition (TGI) (B16.F10 tumor [5]; 30 mg/kg IV q7dx3): 90% | Day tumor volume end point (3000 mm^3) reached (B16.F10 tumor [5]; 30 mg/kg q7dx3): 37 days | Tumor growth delay (TGD) (B16.F10 tumor [5]; 60 mg/kg IV q14dx2): 11 days | Tumor growth inhibition (TGI) (B16.F10 tumor [5]; 60 mg/kg IV q14dx2): 71% | Maximum body weight loss (B16.F10 tumor [5]; 60 mg/kg IV q14dx2, listed as Docetaxel): 0% | Maximum body weight loss (B16.F10 tumor [5]; 60 mg/kg IV q14dx2, listed as docetaxel): did not show any body weight loss | Day tumor volume end point (3000 mm^3) reached (B16.F10 tumor [5]; 60 mg/kg q14dx2): 29 days

Source: patent US20110262490A1, “POLYMER-AGENT CONJUGATES, PARTICLES, COMPOSITIONS, AND RELATED METHODS OF USE” (priority 2009, published 2011)
